Biological target: T1, IKKε (Homo sapiens, UniProt Q14164)
T1 sequence (Q14164 1-716): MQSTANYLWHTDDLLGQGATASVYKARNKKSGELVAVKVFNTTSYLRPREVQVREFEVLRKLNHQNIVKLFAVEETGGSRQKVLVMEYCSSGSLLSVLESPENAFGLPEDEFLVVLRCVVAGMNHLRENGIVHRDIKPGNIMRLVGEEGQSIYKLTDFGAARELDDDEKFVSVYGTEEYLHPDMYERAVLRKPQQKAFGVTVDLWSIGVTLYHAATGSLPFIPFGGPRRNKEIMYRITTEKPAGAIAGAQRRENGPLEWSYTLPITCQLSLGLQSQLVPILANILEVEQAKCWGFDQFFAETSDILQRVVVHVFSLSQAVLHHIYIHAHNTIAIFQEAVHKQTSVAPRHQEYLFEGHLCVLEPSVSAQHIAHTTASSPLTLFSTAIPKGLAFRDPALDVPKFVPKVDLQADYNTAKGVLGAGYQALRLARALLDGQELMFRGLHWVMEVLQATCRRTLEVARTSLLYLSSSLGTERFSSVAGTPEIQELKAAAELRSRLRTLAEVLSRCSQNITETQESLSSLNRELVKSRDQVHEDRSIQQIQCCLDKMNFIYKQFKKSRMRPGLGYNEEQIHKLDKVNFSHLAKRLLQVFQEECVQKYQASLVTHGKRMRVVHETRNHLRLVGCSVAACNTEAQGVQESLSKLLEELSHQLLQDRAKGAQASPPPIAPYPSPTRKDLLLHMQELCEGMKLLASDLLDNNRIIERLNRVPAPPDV
Assay type: biochemical

IC50: 42 nM
Compound: N#CCNC(=O)c1ccc(-c2ccnc(Nc3ccc(N4CCOCC4)cc3)n2)cc1 [CYT387]

Reference: publication PMC3980023 (Cancer discovery, 2014)
